Where “and” joins values, the source holds several entries; their conditions need not be identical. Equal entries are not always repeated. Inconclusive results and toxic doses are left out.

In this test the test system is L1210 leukemia ip in BDF1 mice, survival T/C. Description: NCI In Vivo Anticancer Drug Screen. Data for tumor model L1210 Leukemia (intraperitoneal) in B6D2F1 (BDF1) mice. The settings on record: endpoint: mean survival time, higher = longer survival. Put shortly:
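Value reflects the ratio of survival in compound-treated mice to survival in vehicle-treated controls, with both groups carrying the same transplanted tumor.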

[1] abbreviates: dose: 100.0 mg/kg/injection, schedule: Q04DX003 (ip), vehicle: Klucel (hydroxypropylcellulose) (HPC).
The mark [2] stands for this setting: dose: 200.0 mg/kg/injection, schedule: Q04DX003 (ip), vehicle: Klucel (hydroxypropylcellulose) (HPC).
[3] abbreviates: dose: 400.0 mg/kg/injection, schedule: Q04DX003 (ip), vehicle: Klucel (hydroxypropylcellulose) (HPC).
The mark [4] stands for this setting: dose: 100.0 mg/kg/injection, schedule: Q01DX001 (ip), vehicle: saline.
Setting [5] is: dose: 200.0 mg/kg/injection, schedule: Q01DX001 (ip), vehicle: saline.
Where [6] appears, read: dose: 400.0 mg/kg/injection, schedule: Q01DX001 (ip), vehicle: saline.

`COC(=O)c1[nH]cnc1/N=N\N(CCF)CCF`: the T/C reads like this: (dose: 1.5 mg/kg/injection, schedule: Q01DX009 (ip), vehicle: carboxymethylcellulose (CMC)) 120 % of control; (dose: 3.0 mg/kg/injection, schedule: Q01DX009 (ip), vehicle: carboxymethylcellulose (CMC)) 110 % of control; (dose: 4.5 mg/kg/injection, schedule: Q01DX001 (ip), vehicle: carboxymethylcellulose (CMC)) 102 % of control; (dose: 5.0 mg/kg/injection, schedule: Q01DX001 (ip), vehicle: carboxymethylcellulose (CMC)) 101 % of control; (dose: 9.0 mg/kg/injection, schedule: Q01DX001 (ip), vehicle: carboxymethylcellulose (CMC)) 112 % of control; (dose: 10.0 mg/kg/injection, schedule: Q01DX001 (ip), vehicle: carboxymethylcellulose (CMC)) 115 % of control. Also, the T/C (dose: 12.0 mg/kg/injection, schedule: Q01DX009 (ip), vehicle: carboxymethylcellulose (CMC)) was 91 % of control; the T/C (dose: 14.4 mg/kg/injection, schedule: Q01DX009 (ip), vehicle: carboxymethylcellulose (CMC)) is 169 % of control; the T/C (dose: 18.0 mg/kg/injection, schedule: Q01DX009 (ip), vehicle: carboxymethylcellulose (CMC)) was 95 % of control; the T/C (dose: 40.0 mg/kg/injection, schedule: Q01DX009 (ip), vehicle: carboxymethylcellulose (CMC)) is 97 % of control; the T/C (dose: 53.0 mg/kg/injection, schedule: Q01DX001 (ip), vehicle: carboxymethylcellulose (CMC)) is 154 % of control; the T/C (dose: 80.0 mg/kg/injection, schedule: Q01DX001 (ip), vehicle: carboxymethylcellulose (CMC)) was 171 % of control.
Take `OCCc1c[nH]c2ccccc12`: the T/C was 97 % of control under setting [1], 94 % of control under setting [2] and 97 % of control under setting [3].
`CC(=O)Nc1ccc(OCc2ccccc2)cc1[N+](=O)[O-]`: the T/C is 95 % of control (dose: 50.0 mg/kg/injection, schedule: Q01DX001 (ip), vehicle: saline); 101 % of control under setting [4]; 98 % of control under setting [5]; 93 % of control under setting [6].
Regarding `O=c1[nH]c(=O)n(C2OC(CO)C(O)C2O)c2ccccc12` (centres undefined), the T/C by setting is: under setting [4], 102 % of control; under setting [5], 93 % of control; under setting [6], 93 % of control.
For `COc1nc(C)c(C)n[n+]1C`, the T/C runs as follows: (dose: 75.0 mg/kg/injection, schedule: Q01DX001 (ip), vehicle: saline with Tween-80) 107 % of control; (dose: 150.0 mg/kg/injection, schedule: Q01DX001 (ip), vehicle: saline with Tween-80) 104 % of control; (dose: 300.0 mg/kg/injection, schedule: Q01DX001 (ip), vehicle: saline with Tween-80) 111 % of control.
As for `CCOC(=O)c1ccc(NC(=S)NC(=O)c2ccco2)cc1`, the T/C reads like this: (dose: 100.0 mg/kg/injection, schedule: Q01DX009 (ip), vehicle: saline with Tween-80) 98 % of control; under setting [1], 102 % of control; (dose: 200.0 mg/kg/injection, schedule: Q01DX009 (ip), vehicle: saline with Tween-80) 98 % of control; under setting [2], 98 % of control; (dose: 400.0 mg/kg/injection, schedule: Q01DX009 (ip), vehicle: saline with Tween-80) 98 % of control; under setting [3], 96 % of control.
`COc1cccc(C2CCCCC2OS(=O)(=O)c2ccc(C)cc2)c1` (centres undefined): the T/C is 106 % of control (dose: 100.0 mg/kg/injection, schedule: Q01DX001 (ip), vehicle: steriod suspending solution); 101 % of control (dose: 200.0 mg/kg/injection, schedule: Q01DX001 (ip), vehicle: steriod suspending solution); 91 % of control (dose: 400.0 mg/kg/injection, schedule: Q01DX001 (ip), vehicle: steriod suspending solution).
In the case of `Nc1ccc(N=Nc2ccc(OCCN(CCO)CCO)cc2)c(N)n1`, the T/C by setting is: under setting [4], 93 % of control; under setting [5], 98 % of control.
As to `CC1OC(=O)NC1C(=O)O` (centres undefined), the T/C is, setting by setting: under setting [4], 120 % of control; (dose: 100.0 mg/kg/injection, schedule: Q01DX009 (ip), vehicle: saline) 91 % of control; (dose: 100.0 mg/kg/injection, schedule: Q04DX003 (ip), vehicle: saline with Tween-80) 106 % of control; under setting [5], 98 % of control; (dose: 200.0 mg/kg/injection, schedule: Q01DX009 (ip), vehicle: saline) 101 % of control; (dose: 200.0 mg/kg/injection, schedule: Q04DX003 (ip), vehicle: saline with Tween-80) 103 % of control. Moreover, the T/C reads like this: under setting [6], 101 % of control; (dose: 400.0 mg/kg/injection, schedule: Q01DX009 (ip), vehicle: saline) 89 % of control; (dose: 400.0 mg/kg/injection, schedule: Q04DX003 (ip), vehicle: saline with Tween-80) 95 % of control.
Take `C[C@]12C=CC(=O)C=C1CC[C@@H]1[C@@H]2CC[C@]2(C)OC(=O)CC[C@@H]12`: the T/C (dose: 125.0 mg/kg/injection, schedule: Q01DX Z (sc), vehicle: steriod suspending solution) is 103 % of control; the T/C (dose: 250.0 mg/kg/injection, schedule: Q01DX Z (sc), vehicle: steriod suspending solution) is 102 % of control; the T/C (dose: 500.0 mg/kg/injection, schedule: Q01DX Z (sc), vehicle: steriod suspending solution) was 101 % of control; the T/C (dose: 1000.0 mg/kg/injection, schedule: Q01DX Z (sc), vehicle: steriod suspending solution) is 101 % of control.
Consider `O/N=C1/CC2CCC(C2)C1(O)c1ccccc1` (centres undefined), for which the T/C under setting [4] was 103 % of control, the T/C under setting [5] is 113 % of control and the T/C under setting [6] is 103 % of control.
Turning to `C[As](=O)(O)c1ccc(N)cc1`, the T/C is, setting by setting: (dose: 25.0 mg/kg/injection, schedule: Q04DX003 (ip), vehicle: Klucel (hydroxypropylcellulose) (HPC)) 95 % of control; (dose: 50.0 mg/kg/injection, schedule: Q04DX003 (ip), vehicle: Klucel (hydroxypropylcellulose) (HPC)) 93 % of control; under setting [1], 90 % of control and 92 % of control.
Take `CCCCCCC(CCCCCC)c1ccccc1`: the T/C was 90 % of control (dose: 100.0 mg/kg/injection, schedule: Q01DX001 (ip), vehicle: saline with Tween-80) and 93 % of control (dose: 200.0 mg/kg/injection, schedule: Q01DX001 (ip), vehicle: saline with Tween-80).
Turning to `COc1ccc(C(=O)c2ccc(Cl)s2)cc1`, the T/C (dose: 100.0 mg/kg/injection, schedule: Q04DX003 (ip), vehicle: gum acacia) was 96 % of control; the T/C (dose: 200.0 mg/kg/injection, schedule: Q04DX003 (ip), vehicle: gum acacia) is 91 % of control; the T/C (dose: 400.0 mg/kg/injection, schedule: Q04DX003 (ip), vehicle: gum acacia) was 89 % of control.
As to `CC(=O)c1c(O)c(C)c(O)c2c1OC1=CC(=O)C(C(C)=O)C(=O)C12C` (centres undefined), the T/C is 103 % of control (dose: 5.0 mg/kg/injection, schedule: Q01DX009 (ip), vehicle: gum acacia); 101 % of control (dose: 10.0 mg/kg/injection, schedule: Q01DX009 (ip), vehicle: gum acacia); 103 % of control (dose: 20.0 mg/kg/injection, schedule: Q01DX009 (ip), vehicle: gum acacia); 94 % of control (dose: 40.0 mg/kg/injection, schedule: Q01DX009 (ip), vehicle: gum acacia); 86 % of control (dose: 80.0 mg/kg/injection, schedule: Q01DX009 (ip), vehicle: gum acacia).
`CCCCCCCCCCOc1ccccc1C(=O)NCCN1CCCC1`: the T/C by setting is: (dose: 15.0 mg/kg/injection, schedule: Q01DX015 (ip), vehicle: saline) 88 % of control; (dose: 30.0 mg/kg/injection, schedule: Q01DX015 (ip), vehicle: saline) 91 % of control; (dose: 60.0 mg/kg/injection, schedule: Q01DX015 (ip), vehicle: saline) 91 % of control; (dose: 120.0 mg/kg/injection, schedule: Q01DX015 (ip), vehicle: saline) 88 % of control.
As for `Cc1cc(-c2ccc(NC(=O)Nc3cccc(C4=NCCN4)c3)c(C)c2)ccc1NC(=O)Nc1cccc(C2=NCCN2)c1`, the T/C reads like this: (dose: 31.2 mg/kg/injection, schedule: Q01DX Z (ip), vehicle: methylcellulose (MC)) 97 % of control; (dose: 62.5 mg/kg/injection, schedule: Q01DX Z (ip), vehicle: methylcellulose (MC)) 103 % of control; (dose: 125.0 mg/kg/injection, schedule: Q01DX Z (ip), vehicle: methylcellulose (MC)) 103 % of control.
With `NC(=O)C1(Nc2ccc(-c3ccc(Cl)cc3)cc2)CCCC1`, the T/C (dose: 50.0 mg/kg/injection, schedule: Q01DX001 (ip), vehicle: carboxymethylcellulose (CMC)) is 96 % of control; the T/C (dose: 100.0 mg/kg/injection, schedule: Q01DX001 (ip), vehicle: carboxymethylcellulose (CMC)) is 93 % of control; the T/C (dose: 200.0 mg/kg/injection, schedule: Q01DX001 (ip), vehicle: carboxymethylcellulose (CMC)) is 90 % of control; the T/C (dose: 400.0 mg/kg/injection, schedule: Q01DX001 (ip), vehicle: carboxymethylcellulose (CMC)) is 87 % of control.
Regarding `Cc1ccc(C)c(OCC(=O)O)c1`, the T/C by setting is: under setting [1], 97 % of control; under setting [2], 101 % of control; under setting [3], 101 % of control.

For the origin of these results see PubChem BioAssay AID248 (DTP/NCI, 2004).
